Measured values taken from patent US10744119B1, “Inhibitors of the malarial GST” (University of Puerto Rico, priority 2014, dated 2020).
Where two headings read alike, the source gives them in different places.

How the values were obtained:
[1] = tested on: P. berghei blood stages; conditions: read-out: EC50, published results; published value; cited from earlier work
[2] = tested on: P. berghei blood stages; experiment: Plasmodium berghei in vitro drug luminescence (ITDL) assay; format: cell-based; conditions: read-out: EC50, growth inhibition of P. berghei blood stages
Method: The compounds were received as 10 mM stocks dissolved in 100% DMSO. These stocks were stored at −20° C. The DMSO stock compounds were diluted in complete culture medium (RPMI1640 medium supplemented with 20% FBS from Gibco® heat-inactivated and Neomycin stock solution of 10,000 IU/mL from Sigma-Aldrich®) for use in the Plasmodium berghei in vitro drug luminescence assay. For initial testing, the compounds were used at the following concentration: 0.01 μM, 0.1 μM, 1 μM and 10 μM; in triplicate point to determine the inhibition curve for each compound.
This assay measures the in vitro development of P. berghei ring stage into mature schizonts in the presence of inhibitors/drugs. The Swiss-CD1 female mice were infected with the GFP-luc parasite line. The GFP-luc parasite line allows determination of the luciferase activity in the cultured mature schizonts, which is directly proportional to the number of schizonts. When the parasitemia reaches 1-3%, the RBCs were collected from the infected mice and used to perform the assay. The susceptibility of blood stages parasites was determined in the presence of standard GST inhibitors and the TCAMS compounds identified from the VLS. […] The standard GST inhibitors were weighed and dissolved in 100% DMSO to prepare the stock solution. Dilutions of the standard GST inhibitors were freshly prepared in complete culture medium (RPMI1640 medium supplemented with 20% FBS from Gibco® heat-inactivated and Neomycin stock solution of 10,000 IU/mL from Sigma-Aldrich®) for each assay. The dilutions of the inhibitors were added to the wells in triplicates, 50 μL per well. Chloroquine diphosphate salt from Sigma-Aldrich® was used as a control (at a concentration of 100 nM) for complete inhibition of blood stage development. Further, infected blood was collected from one mouse by cardiac puncture under anesthesia early in the morning (between 9:00-10:[…]). The blood was added to a 50 mL tube containing 5 mL complete culture medium supplemented with 300 μL heparin stock solution (25,000 U/mL). The blood was centrifuged for 8 min at 450×g and the supernatant was removed. The blood was resuspended in a complete culture medium comprising a concentration of 2% (v/v). In the next step, 50 μL of the blood suspension was added in each well containing the inhibitors dilutions. The 96-well black culture plates containing the infected blood solution were placed into a candle jar. The candle jar was carefully flushed with a gas mixture of 5% CO2, 5% O2, 90% N2 using a 0.22 μm filter unit connected to the gas hose for 2 minutes. The lid was tightly closed immediately after gassing. The infected blood suspension was incubated at 37° C. with continuous agitation (enough to keep the cells suspended) for 24 hours allowing the ring stages to develop into the mature schizonts. After the culture period, the schizonts were evaluated by microscopic examination of Diff Quick-stained thin blood smears. The 96-well plate was centrifuged at 1,000×g for 5 minutes. The supernatant was removed using a syringe needle on those sides of the wells without red blood cell after spinning. The luciferase activity was measured in cultured mature schizonts using the Luciferase Assay System Kit from Promega (Cat. No. E1500). The RBCs were lysed by adding 50 μL of 1× cell culture lysis reagent into each well. The plate was shaken for 5 minutes to assure complete lysis. Afterward, 50 μL of the luciferase assay reagent was added. The luminescence was measured using the SpectraMax® M3 Microplate Reader (Molecular Devices). […] The data was analyzed and used to generate standard in vitro inhibition curves, and EC50 values of each compound were calculated. Preliminary data analyses were performed using Microsoft Excel and the effective concentration (50% of the maximal inhibition; EC50 values) were calculated using GraphPad Prism software (Graph-Pad software, Inc., US, Mac Version 6).

[3] = target: P. berghei GST (pbGST) (Plasmodium berghei, UniProt A0A509AJX5); experiment: Inhibition of GST activity (CDNB/GSH, 340 nm) in P. berghei protein extracts; format: biochemical; conditions: for inhibitory activity on pbGST: 1, 10 and 50 μM, duplicate (n=2), more marked effect at 50 μM
Chain of P. berghei GST (pbGST) (A0A509AJX5 entry or part of it): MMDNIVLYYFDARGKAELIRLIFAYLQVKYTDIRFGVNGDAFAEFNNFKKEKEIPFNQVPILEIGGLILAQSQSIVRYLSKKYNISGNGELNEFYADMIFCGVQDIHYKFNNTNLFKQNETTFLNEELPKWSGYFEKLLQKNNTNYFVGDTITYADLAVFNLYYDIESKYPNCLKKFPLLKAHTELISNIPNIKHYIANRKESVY
Method: Glutathione S-transferase Activity in Blood Stage Parasites: The parasite extracts were prepared as the method described in the Protein for Enzymatic Activity. The enzymatic activity was determined spectroscopically using the chromogenic substrate 1-chloro-2,4-dinitrobenzene (CDNB) from Sigma-Aldrich®. The GST activity was assayed at 25° C. in P. berghei protein extracts by monitoring the increase in absorbance at 340 nm on the basis of the extinction coefficient for the product S-(2,4-dinitrophenyl) glutathione (ε340 nm=9.6 mM^−1 cm^−1). The absorbance was measured in a 96-well plate (UV flat bottom Microtiter®, from Thermo Scientific) using the SpectraMax® M3 Microplate Reader (Molecular Devices). The parasite extract (0.65 mg/mL) and 1 mM CDNB were added to a 100 mM potassium phosphate (pH 6.5) buffer. The reaction was started by adding 1 mM GSH. To detect any residual GST activity associated with the parasite extract, blank reactions as controls (no GSH) were included. The Enzyme activity is reported as units (micromole of GSH/min)/mg of protein. This assay was standardized using the human placenta GST from Sigma-Aldrich® (Cat No. G8642) and used as positive control.
The compounds stock solutions were prepared in 100% DMSO. […] The half maximal inhibitory concentration (IC50) values were calculated using the non-linear regression function for sigmoidal dose-response (variable slope). Inhibition curves of pbGST was done in two independent experiments with one replicate each (n=2) whereas the inhibition curves of hGST was determined in three independent experiments in triplicate (n=9). […] GraphPad Prism software (Graph-Pad software, Inc., US, Mac Version 6) was used to make the graph and to perform the statistical analyses.
The GSK TCAMS compounds dilutions were prepared in DMSO and the final concentration of DMSO in the assay was 0.5%. Inhibition of pbGST by the GSK TCAMS compounds were determined by adding variable concentration of compounds (1, 10 and 50 μM) with a fixed P. berghei protein extracts concentration (0.65 mg/mL) in a total volume of 200 μL containing 1 mM CDNB and 100 mM potassium phosphate buffer (pH 6.5) at 25° C. The reaction was started by adding 1 mM GSH and activity was measured spectroscopically at 340 nm absorbance. The data obtained by varying compound concentration was analyzed using a column bar graph. Inhibition of pbGST by the GSK TCAMS compounds was done in duplicate. One GSK TCAMS compound, TCMDC-124132, was analyzed against the hGST in two independent experiments in triplicate (n=6). A statistical analysis was done using the GraphPad Prism software (Graph-Pad software, Inc., US, Mac Version 6). […]

[4] = target: T1, human placenta GST (hGST) (Homo sapiens, UniProt P09211); experiment: Inhibition of GST activity (CDNB/GSH, 340 nm) of human placenta GST; format: biochemical
T1 construct: the human placenta GST from Sigma-Aldrich® (Cat No. G8642); purchased Sigma-Aldrich G8642; host or cells: human placenta (tissue-derived)
T1 sequence (P09211 2-210 limits assumed): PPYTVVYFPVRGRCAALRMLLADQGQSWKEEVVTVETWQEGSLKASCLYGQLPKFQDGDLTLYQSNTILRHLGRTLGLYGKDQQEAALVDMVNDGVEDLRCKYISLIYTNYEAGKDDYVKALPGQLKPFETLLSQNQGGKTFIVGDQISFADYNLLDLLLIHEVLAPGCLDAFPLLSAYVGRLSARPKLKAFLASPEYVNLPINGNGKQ
Method: Glutathione S-transferase Activity in Blood Stage Parasites: The parasite extracts were prepared as the method described in the Protein for Enzymatic Activity. The enzymatic activity was determined spectroscopically using the chromogenic substrate 1-chloro-2,4-dinitrobenzene (CDNB) from Sigma-Aldrich®. The GST activity was assayed at 25° C. in P. berghei protein extracts by monitoring the increase in absorbance at 340 nm on the basis of the extinction coefficient for the product S-(2,4-dinitrophenyl) glutathione (ε340 nm=9.6 mM^−1 cm^−1). The absorbance was measured in a 96-well plate (UV flat bottom Microtiter®, from Thermo Scientific) using the SpectraMax® M3 Microplate Reader (Molecular Devices). […]
The compounds stock solutions were prepared in 100% DMSO. […] The half maximal inhibitory concentration (IC50) values were calculated using the non-linear regression function for sigmoidal dose-response (variable slope). Inhibition curves of pbGST was done in two independent experiments with one replicate each (n=2) whereas the inhibition curves of hGST was determined in three independent experiments in triplicate (n=9). […]
The GSK TCAMS compounds dilutions were prepared in DMSO and the final concentration of DMSO in the assay was 0.5%. […] The reaction was started by adding 1 mM GSH and activity was measured spectroscopically at 340 nm absorbance. […]

[5] = ring stage to mature schizont development, 24 hours, luciferase readout, three independent experiments

Row | SMILES | EC50 [2, 5] [nM] | inhibitory activity on pbGST [3] | other results
1 | CCN(CC)CCCC(C)Nc1ccnc2cc(Cl)ccc12 (centres unmarked) [Chloroquine] |  |  | EC50 [1]: 20 nM
2 | COc1ccc2nccc([C@@H](O)CN3CCC(NC(=O)c4cc5c(F)cc(F)cc5[nH]4)CC3)c2n1 [Compound 6] | 1480 | No inhibitory activity | 
3 | c1ccc2[nH]c(CN(Cc3nc4ccccc4[nH]3)Cc3nc4ccccc4[nH]3)nc2c1 [Compound 8] | 1150 | tendency of inhibition | inhibitory activity on human placenta GST ([4]; at 50 μM and 100 μM, statistical difference at 100 μM, n=6): tendency of inhibition
4 | Oc1ccc(CCNc2nc(NCc3ccccc3-c3ccc(C(F)(F)F)cc3)nc(N3CCNCC3)n2)cc1 [Compound 12] | 3030 |  | 
5 | CCCCCCSC[C@H](NC(=O)CC[C@H](N)C(=O)O)C(=O)NCC(=O)O [S-hexylglutathione, reference compound] |  |  | EC50 ([2]; Plasmodium berghei, 24 h): 6860 nM; inhibition at 50 µM ([3]; 50 μM compound): 50%; inhibition at 50 µM ([4]; 50 μM compound): 50%
6 | O=C1Nc2cccc3c2C1(CCCCN1CCC(c2cc4ccncc4[nH]2)CC1)CCC3 (centres unmarked) [TCMDC-141151/TCMDC-141221] | 1040 | No inhibitory activity | 
7 | COc1cc(/C=C/C(=O)CC(=O)/C=C/c2ccc(O)c(OC)c2)ccc1O [curcumin, reference compound] |  |  | EC50 ([2]; Plasmodium berghei, 24 h): 15000 nM
8 | C=C(CC)C(=O)c1ccc(OCC(=O)O)c(Cl)c1Cl [ethacrynic acid, reference compound] |  |  | EC50 ([2]; Plasmodium berghei, ring stage to mature schizont development, 24 hours, luciferase readout, three independent experiments): 14700 nM
